Data: ChEMBL document CHEMBL1201862, “PubChem BioAssay data set” (2004)
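1) Cells in 96-well plates. 2) Compound, 48 h, 5 concentrations. 3) Linear interpolation between surrounding doses. 4) Unreached endpoint = highest concentration. Abbreviation: GI50, concentration required for 50% inhibition of growth.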 Calls of active or inactive are those of the source. Cut-off read from the data, not from the text of the source: active = GI50 up to about 1.1 µM and inactive = higher.

Columns and labels:
Experiment in all cases: inhibition of tumour cell growth, NCI panel, 48 h
HOP-62 = tested on: HOP-62
SR = tested on: SR
DLD-1 = tested on: DLD-1
XF498 = tested on: XF498
KM12 = tested on: KM12
RXF 631 = tested on: RXF 631
K562 = tested on: K562
KM-20L2 = tested on: KM-20L2
M14 = tested on: M14
OVCAR-3 = tested on: OVCAR-3
LOX IMVI = tested on: LOX IMVI
OVCAR-8 = tested on: OVCAR-8
OVCAR-5 = tested on: OVCAR-5
NCI-H226 = tested on: NCI-H226
SK-OV-3 = tested on: SK-OV-3
A498 = tested on: A498
SW-620 = tested on: SW-620
LXFL 529 = tested on: LXFL 529
NCI-H522 = tested on: NCI-H522
RPMI-8226 = tested on: RPMI-8226
SNB-78 = tested on: SNB-78
SK-MEL-5 = tested on: SK-MEL-5
786-0 = tested on: 786-0
SK-MEL-28 = tested on: SK-MEL-28
SF-295 = tested on: SF-295
SNB-19 = tested on: SNB-19
SN12C = tested on: SN12C
CAKI-1 = tested on: CAKI-1
NCI-H460 = tested on: NCI-H460
ACHN = tested on: ACHN
SNB-75 = tested on: SNB-75
HOP-18 = tested on: HOP-18
HL-60 = tested on: HL-60
IGROV-1 = tested on: IGROV-1
COLO 205 = tested on: COLO 205
UACC-62 = tested on: UACC-62
NCI-H23 = tested on: NCI-H23
CCRF-CEM = tested on: CCRF-CEM
EKVX = tested on: EKVX
SF-268 = tested on: SF-268
Malme-3M = tested on: Malme-3M
HT-29 = tested on: HT-29
UACC-257 = tested on: UACC-257
UO-31 = tested on: UO-31
HCT-15 = tested on: HCT-15
TK-10 = tested on: TK-10
MOLT-4 = tested on: MOLT-4
HCT-116 = tested on: HCT-116
SK-MEL-2 = tested on: SK-MEL-2
A549 = tested on: A549
HCC 2998 = tested on: HCC 2998
SF-539 = tested on: SF-539
RXF 393 = tested on: RXF 393
OVCAR-4 = tested on: OVCAR-4
M19-MEL = tested on: M19-MEL
U-251 = tested on: U-251
DMS-273 = tested on: DMS-273
HOP-92 = tested on: HOP-92
DMS-114 = tested on: DMS-114

In the case of `COC(=O)C(=O)C(C(=O)C(=O)Nc1ccc(C)cc1C)c1nc2ccccc2nc1O` (configuration not stated), the GI50 (HOP-62) is reported as 39.4 µM (inactive), the GI50 (SR) is reported as 35.8 µM (inactive) and the GI50 (DLD-1) is reported as 50.7 µM (inactive). For the same compound, the GI50 (XF498) was 58.3 µM (inactive), the GI50 (KM12) was 64.3 µM (inactive) and the GI50 (RXF 631) was 46.7 µM (inactive). For the same compound, the GI50 (K562) was 42.5 µM (inactive), the GI50 (KM-20L2) was > 100 µM (inactive) and the GI50 (M14) was 54.8 µM (inactive). For the same compound, the GI50 (OVCAR-3) was 32.7 µM (inactive), the GI50 (LOX IMVI) was 47 µM (inactive) and the GI50 (OVCAR-8) was 37.7 µM (inactive). For the same compound, the GI50 (OVCAR-5) was 30.9 µM (inactive), the GI50 (NCI-H226) was 37.4 µM (inactive) and the GI50 (SK-OV-3) was 40.1 µM (inactive). The GI50 (A498) was 19.5 µM (inactive), the GI50 (SW-620) was > 100 µM (inactive) and the GI50 (LXFL 529) was 43.9 µM (inactive). The GI50 (NCI-H522) was 25 µM (inactive), the GI50 (RPMI-8226) was 35 µM (inactive) and the GI50 (SNB-78) was 41.6 µM (inactive). For the same compound, the GI50 (SK-MEL-5) was 58.1 µM (inactive), the GI50 (786-0) was 77.4 µM (inactive) and the GI50 (SK-MEL-28) was 51.9 µM (inactive). The GI50 (SF-295) was > 100 µM (inactive), the GI50 (SNB-19) was > 100 µM (inactive) and the GI50 (SN12C) was 41.6 µM (inactive). The GI50 (CAKI-1) was 21.3 µM (inactive), the GI50 (NCI-H460) was 85.5 µM (inactive) and the GI50 (ACHN) was 50 µM (inactive). For the same compound, the GI50 (SNB-75) was 15 µM (inactive), the GI50 (HOP-18) was 36 µM (inactive) and the GI50 (HL-60) was 41.8 µM (inactive). The GI50 (IGROV-1) was 32.5 µM (inactive), the GI50 (COLO 205) was 79.3 µM (inactive) and the GI50 (UACC-62) was 37.1 µM (inactive). The GI50 (NCI-H23) was 66.8 µM (inactive), the GI50 (CCRF-CEM) was 4.99 µM (inactive) and the GI50 (EKVX) was 17.9 µM (inactive). The GI50 (SF-268) was 99.1 µM (inactive), the GI50 (Malme-3M) was 57.4 µM (inactive) and the GI50 (HT-29) was > 100 µM (inactive). For the same compound, the GI50 (UACC-257) was 58.7 µM (inactive), the GI50 (UO-31) was 30.9 µM (inactive) and the GI50 (HCT-15) was 31.6 µM. For the same compound, the GI50 (TK-10) was 22.1 µM (inactive), the GI50 (MOLT-4) was 32.4 µM (inactive) and the GI50 (HCT-116) was 63 µM (inactive). The GI50 (SK-MEL-2) was 54.3 µM (inactive), the GI50 (A549) was 31.7 µM (inactive) and the GI50 (HCC 2998) was 67.3 µM (inactive). The GI50 (SF-539) was 36.6 µM (inactive), the GI50 (RXF 393) was 17.8 µM (inactive) and the GI50 (OVCAR-4) was > 100 µM (inactive). The GI50 (M19-MEL) was > 100 µM (inactive) and the GI50 (U-251) was 57.1 µM (inactive).

`Cc1ccccc1NC(=O)C(=O)CC(=O)c1ccc([N+](=O)[O-])cc1` was tested, and the GI50 (HOP-62) was > 100 µM (inactive), the GI50 (DLD-1) was > 100 µM (inactive) and the GI50 (XF498) was > 100 µM (inactive). For the same compound, the GI50 (KM12) was > 100 µM (inactive), the GI50 (RXF 631) was > 100 µM (inactive) and the GI50 (KM-20L2) was > 100 µM (inactive). The GI50 (M14) was > 100 µM (inactive), the GI50 (OVCAR-3) was > 100 µM (inactive) and the GI50 (LOX IMVI) was > 100 µM (inactive). The GI50 (OVCAR-8) was > 100 µM (inactive), the GI50 (OVCAR-5) was > 100 µM (inactive) and the GI50 (NCI-H226) was > 100 µM (inactive). For the same compound, the GI50 (SK-OV-3) was > 100 µM (inactive), the GI50 (SW-620) was > 100 µM (inactive) and the GI50 (LXFL 529) was > 100 µM (inactive). The GI50 (DMS-273) was > 100 µM (inactive), the GI50 (RPMI-8226) was > 100 µM (inactive) and the GI50 (SNB-78) was > 100 µM (inactive). The GI50 (786-0) was > 100 µM (inactive), the GI50 (SK-MEL-28) was > 100 µM (inactive) and the GI50 (SF-295) was > 100 µM (inactive). For the same compound, the GI50 (SNB-19) was > 100 µM (inactive), the GI50 (SN12C) was > 100 µM (inactive) and the GI50 (CAKI-1) was > 100 µM (inactive). The GI50 (NCI-H460) was > 100 µM (inactive), the GI50 (ACHN) was > 100 µM (inactive) and the GI50 (SNB-75) was 39.6 µM (inactive). The GI50 (HOP-18) was > 100 µM (inactive), the GI50 (IGROV-1) was > 100 µM (inactive) and the GI50 (COLO 205) was > 100 µM (inactive). The GI50 (UACC-62) was > 100 µM (inactive), the GI50 (NCI-H23) was > 100 µM (inactive) and the GI50 (EKVX) was > 100 µM (inactive). The GI50 (SF-268) was > 100 µM (inactive), the GI50 (Malme-3M) was > 100 µM (inactive) and the GI50 (HT-29) was > 100 µM (inactive). The GI50 (UACC-257) was > 100 µM (inactive), the GI50 (UO-31) was > 100 µM (inactive) and the GI50 (HCT-15) was greater than 100 µM. The GI50 (TK-10) was > 100 µM (inactive), the GI50 (HCT-116) was > 100 µM (inactive) and the GI50 (HOP-92) was > 100 µM (inactive). For the same compound, the GI50 (SK-MEL-2) was > 100 µM (inactive), the GI50 (A549) was > 100 µM (inactive) and the GI50 (HCC 2998) was 23.8 µM (inactive). For the same compound, the GI50 (SF-539) was > 100 µM (inactive), the GI50 (RXF 393) was > 100 µM (inactive) and the GI50 (OVCAR-4) was > 100 µM (inactive). The GI50 (DMS-114) was > 100 µM (inactive), the GI50 (M19-MEL) was > 100 µM (inactive) and the GI50 (U-251) was > 100 µM (inactive).
